Source: ChEMBL document CHEMBL4814079, “Structure-Activity Relationship for the Picolinamide Antibacterials that Selectively Target Clostridioides difficile” (ACS Med Chem Lett, 2021)
Converted amounts (≈) assume the structure as drawn.

Key:
Clostridioides difficile = experiment: Antibacterial activity against Clostridium difficile ATCC 43255 assessed as reduction in bacterial growth measured after 48 hrs by CLSI based broth microdilution method; type: functional
Staphylococcus aureus = experiment: Antibacterial activity against […] Staphylococcus aureus ATCC 29213 assessed as reduction in bacterial growth measured after 48 hrs by CLSI based broth microdilution method; type: functional
[1] = Selectivity index, ratio of MIC of […] Staphylococcus aureus ATCC 29213 to MIC of Clostridium difficile ATCC 43255; type: functional
HeLa [2] = experiment: Cytotoxicity against human HeLa cells assessed as reduction in cell viability incubated for 16 hrs by XTT assay; type: cell-based
HeLa [3] = experiment: Cytotoxicity against human HeLa cells assessed as reduction in cell viability at 128 ug/ml incubated for 16 hrs by XTT assay; type: cell-based; details: dose 128 µg/ml
[4] = Plasma concentration in CD1 mouse at 20 mg/kg, po measured upto 8 hrs by LC-MS/MS analysis; type: ADME, organism-based; details: in vivo, BLD = below limit of detection
[5] = Drug excretion in CD1 mouse feces at 20 mg/kg, po measured upto 8 hrs by LC-MS/MS analysis; type: ADME, organism-based; details: in vivo
[6] = Ratio of drug excretion in CD-1 mouse feces to MIC for antibacterial activity against Clostridium difficile ATCC 43255; type: toxicity; details: in vivo
HeLa [7] = experiment: Cytotoxicity against human HeLa cells assessed as reduction in cell viability at 64 ug/ml incubated for 16 hrs by XTT assay; type: cell-based; details: dose 64 µg/ml
Fusobacterium nucleatum = experiment: Antibacterial activity against gut Fusobacterium nucleatum HM-992 assessed as reduction in bacterial growth measured after 48 hrs by CLSI based broth microdilution method; type: organism-based; details: in vitro
Eubacterium sp. = experiment: Antibacterial activity against gut Eubacterium sp. HM-178 assessed as reduction in bacterial growth measured after 48 hrs by CLSI based broth microdilution method; type: organism-based
[8] = Antibacterial activity against gut Limosilactobacillus-reuteri HM-102 assessed as reduction in bacterial growth measured after 48 hrs by CLSI based broth microdilution method
Corynebacterium = experiment: Antibacterial activity against gut Corynebacterium HM-784 assessed as reduction in bacterial growth measured after 48 hrs by CLSI based broth microdilution method; type: organism-based
Lactobacillus gasseri = experiment: Antibacterial activity against gut Lactobacillus gasseri HM-664 assessed as reduction in bacterial growth measured after 48 hrs by CLSI based broth microdilution method; type: organism-based; details: in vitro
Bacteroides fragilis = experiment: Antibacterial activity against gut Bacteroides fragilis HM-709 assessed as reduction in bacterial growth measured after 48 hrs by CLSI based broth microdilution method; type: organism-based; details: in vitro
Bifidobacterium longum = experiment: Antibacterial activity against gut Bifidobacterium longum HM-846 assessed as reduction in bacterial growth measured after 48 hrs by CLSI based broth microdilution method; type: organism-based
Veillonella = experiment: Antibacterial activity against gut Veillonella sp HM-49 assessed as reduction in bacterial growth measured after 48 hrs by CLSI based broth microdilution method; type: organism-based; details: in vitro
[9] = Drug excretion in CD1 mouse feces at 10 mg/kg, po measured upto 8 hrs by LC-MS/MS analysis; type: ADME, organism-based; details: in vivo
[10] = Plasma concentration in CD1 mouse at 10 mg/kg, po measured upto 8 hrs by LC-MS/MS analysis; type: ADME, organism-based; details: in vivo, BLD = below limit of detection
Enterococcus faecium = experiment: Antibacterial activity against Enterococcus faecium ATCC 19434 assessed as reduction in bacterial growth measured after 48 hrs by CLSI based broth microdilution method; type: functional

Structure (SMILES) | MIC (Clostridioides difficile) | MIC (Staphylococcus aureus) | Ratio [1] | other results
O=C(Nc1ncco1)c1cc(Oc2ccc(F)c(F)c2)ccn1 | 1 µg/mL (≈ 3.15 µM) | 64 µg/mL (≈ 202 µM) | 64 | –
O=C(Nc1ncco1)c1cc(-c2cc(F)cc(F)c2)ccn1 | 1 µg/mL (≈ 3.32 µM) | 64 µg/mL (≈ 212 µM) | 64 | IC50 (HeLa [2]): 40.1 µg/mL (≈ 133 µM)
O=C(Nc1ncco1)c1cc(-c2cccc(C(F)(F)F)c2)ccn1 | 0.5 µg/mL (≈ 1.5 µM) | 64 µg/mL (≈ 192 µM) | 128 | –
O=C([O-])c1ccc2oc(NC(=O)c3cc(Oc4ccc(F)c(F)c4)ccn3)nc2c1.[Na+] | 0.5 µg/mL | 64 µg/mL | – | Activity (HeLa [3]): Non-Toxic; Cp [4]: Bld; Drug excretion [5]: 3.7 µg/g; Ratio [6]: 7.4
O=C(Nc1ncco1)c1cc(Oc2ccc(SC(F)(F)F)cc2)ccn1 | 1 µg/mL (≈ 2.62 µM) | ≥ 256 µg/mL | > 256 | –
O=C(O)c1ccc2oc(NC(=O)c3cc(Oc4ccc(F)c(F)c4)ccn3)nc2c1 [listing 1 of 2 here] | 0.5 µg/mL (≈ 1.22 µM) | 64 µg/mL (≈ 156 µM) | – | –
O=C(Nc1ncco1)c1cc(-c2cccc(F)c2)ccn1 | 0.5 µg/mL (≈ 1.77 µM) | 64 µg/mL (≈ 226 µM) | 128 | Activity (HeLa [7]): Non-Toxic
O=C(Nc1ncco1)c1cc(-c2cccc(OC(F)(F)F)c2)ccn1 | 0.5 µg/mL (≈ 1.43 µM) | ≥ 256 µg/mL | > 512 | –
O=C(Nc1ncco1)c1cc(-c2ccc(F)c(F)c2)ccn1 | 0.5 µg/mL (≈ 1.66 µM) | 128 µg/mL (≈ 425 µM) | 256 | Activity (HeLa [7]): Non-Toxic
O=C(Nc1ncco1)c1cc(-c2ccc(F)cc2)ccn1 | 1 µg/mL (≈ 3.53 µM) | 64 µg/mL (≈ 226 µM) | 64 | –
Cc1ncc([N+](=O)[O-])n1CCO [METRONIDAZOLE] | – | – | – | MIC (Fusobacterium nucleatum): 2 µg/mL (≈ 11.7 µM); MIC (Eubacterium sp.): 1 µg/mL (≈ 5.84 µM); MIC [8]: > 32 µg/mL; MIC (Corynebacterium): > 32 µg/mL; MIC (Lactobacillus gasseri): > 32 µg/mL; MIC (Bacteroides fragilis): 1 µg/mL (≈ 5.84 µM); MIC (Bifidobacterium longum): 1 µg/mL (≈ 5.84 µM); MIC (Veillonella): 2 µg/mL (≈ 11.7 µM)
O=C(Nc1ncco1)c1cc(Oc2cccc(F)c2)ccn1 | 1 µg/mL (≈ 3.34 µM) | ≥ 256 µg/mL | > 256 | Cp [4]: Bld; Drug excretion [5]: 2.4 µg/g; Ratio [6]: 2.4
O=C(Nc1ncco1)c1cc(-c2ccc(Cl)c(Cl)c2)ccn1 | 0.125 µg/mL (≈ 0.374 µM) | 128 µg/mL (≈ 383 µM) | 1024 | MIC (Fusobacterium nucleatum): 8 µg/mL (≈ 23.9 µM); MIC (Eubacterium sp.): 8 µg/mL (≈ 23.9 µM); MIC [8]: 4 µg/mL (≈ 12 µM); Drug excretion [9]: 0.79 µg/g; Cp [10]: Bld; MIC (Corynebacterium): 16 µg/mL (≈ 47.9 µM); MIC (Enterococcus faecium): ≥ 128 µg/mL; MIC (Lactobacillus gasseri): > 16 µg/mL; IC50 (HeLa [2]): 95.2 µg/mL (≈ 285 µM); MIC (Bacteroides fragilis): 4 µg/mL (≈ 12 µM); MIC (Bifidobacterium longum): > 16 µg/mL; MIC (Veillonella): 16 µg/mL (≈ 47.9 µM); Ratio [6]: 6.6
O=C(O)c1ccc2oc(NC(=O)c3cc(Oc4ccc(F)c(F)c4)ccn3)nc2c1 [listing 2 of 2 here] | – | – | 128 | –
O=C(O)c1ccc2oc(NC(=O)c3cc(-c4cccc(OC(F)(F)F)c4)ccn3)nc2c1 | 0.03 µg/mL (≈ 0.0677 µM) | 16 µg/mL (≈ 36.1 µM) | 512 | IC50 (HeLa [2]): 124 µg/mL (≈ 279 µM)
